# Experimental data from US20240033272A1, “USE OF C[…] THE TREATMENT OF SEIZURES ASSOCIATED WITH HERPES SIMPLEX VIRUS” (GW Research Limited, priority 2020, published 2024).
# Test system: patients diagnosed with herpes simplex virus (seizures associated with herpes simplex virus)
# Test: Open label, expanded-access program: seizure frequency recorded by caregivers in a diary, change relative to baseline
# Assay type: in vivo, human
# Parameters: Reduction in myoclonic seizures over the treatment period / Reduction in absence seizures over the treatment period / Reduction in focal seizures with impairment over the treatment period / Reduction in tonic-clonic seizures over the treatment period / Reduction in atonic seizures over the treatment period / Reduction in tonic seizures over the treatment period: concentration or dose not given beside the values; Seizure frequency, tonic-clonic / Seizure frequency, myoclonic / Seizure frequency, absence / Seizure frequency, focal with impairment / Seizure frequency, tonic / Seizure frequency, focal without impairment / Seizure frequency, atonic: unit not given here
# Details: for Seizure frequency, atonic: baseline 20.0
# Method: Subjects were required to be on one or more AEDs at stable doses for a minimum of two weeks prior to baseline and to have stable vagus nerve stimulation (VNS) settings and ketogenic diet ratios for a minimum of four weeks prior to baseline.
# Modifications were made to concomitant AEDs as per clinical indication.
# Seizure frequency, intensity, and duration were recorded by caregivers in a diary during a baseline period of at least 28 days. Changes in seizure frequency relative to baseline were calculated after at least 2 weeks and at defined timepoints of treatment.
# Patients may be defined as responders if they had more than 50% reduction in seizure frequency compared to baseline. The percent change in seizure frequency was calculated as follows: […]
# The percent change of seizure frequency may be calculated for any time interval where seizure number has been recorded. For the purpose of this example the percent change of seizure frequency for the end of the treatment period was calculated as follows: […]
# [1] = Patient 1, treated for 48 weeks, vs baseline
# [2] = Patient 2, 4 weeks, CBD 25.0 mg/kg/day, baseline 8.0
# [3] = Patient 2, 8 weeks, CBD 25.0 mg/kg/day, baseline 8.0
# [4] = Patient 2, 24 weeks, CBD 25.0 mg/kg/day, baseline 8.0
# [5] = Patient 3, treated for 108 weeks, vs baseline
smiles,measurement,setting,value
"C=C(C)[C@@H]1CCC(C)=C[C@H]1c1c(O)cc(CCCCC)cc1O [CBD, cannabidiol]","Time of treatment after which patient became completely seizure free, focal seizures with impairment",Patient 1,24 weeks
same,"Time of treatment after which patient became completely seizure free, myoclonic seizures",Patient 1,8 weeks
same,"Seizure frequency, tonic-clonic","Patient 1, 4 weeks, CBD 5.0 mg/kg/day, baseline 0.0",14.0
same,"Seizure frequency, myoclonic","Patient 1, 4 weeks, CBD 5.0 mg/kg/day, baseline 75.0",4.0
same,"Seizure frequency, focal with impairment","Patient 1, 4 weeks, CBD 5.0 mg/kg/day, baseline 100.0",14.0
same,"Seizure frequency, absence","Patient 1, 4 weeks, CBD 5.0 mg/kg/day, baseline 2500.0",800.0
same,"Seizure frequency, tonic-clonic","Patient 1, 8 weeks, CBD 10.0 mg/kg/day, baseline 0.0",20.0
same,"Seizure frequency, myoclonic","Patient 1, 8 weeks, CBD 10.0 mg/kg/day, baseline 75.0",0.0
same,"Seizure frequency, focal with impairment","Patient 1, 8 weeks, CBD 10.0 mg/kg/day, baseline 100.0",12.0
same,"Seizure frequency, absence","Patient 1, 8 weeks, CBD 10.0 mg/kg/day, baseline 2500.0",1390.0
same,"Seizure frequency, tonic-clonic","Patient 1, 16 weeks, CBD 15.0 mg/kg/day, baseline 0.0",20.0
same,"Seizure frequency, myoclonic","Patient 1, 16 weeks, CBD 15.0 mg/kg/day, baseline 75.0",0.0
same,"Seizure frequency, focal with impairment","Patient 1, 16 weeks, CBD 15.0 mg/kg/day, baseline 100.0",7.0
same,"Seizure frequency, absence","Patient 1, 16 weeks, CBD 15.0 mg/kg/day, baseline 2500.0",250.0
same,"Seizure frequency, tonic-clonic","Patient 1, 24 weeks, CBD 20.0 mg/kg/day, baseline 0.0",79.6
same,"Seizure frequency, myoclonic","Patient 1, 24 weeks, CBD 20.0 mg/kg/day, baseline 75.0",0.0
same,"Seizure frequency, focal with impairment","Patient 1, 24 weeks, CBD 20.0 mg/kg/day, baseline 100.0",0.0
same,"Seizure frequency, absence","Patient 1, 24 weeks, CBD 20.0 mg/kg/day, baseline 2500.0",398.0
same,"Seizure frequency, tonic-clonic","Patient 1, 36 weeks, CBD 25.0 mg/kg/day, baseline 0.0",31.3
same,"Seizure frequency, myoclonic","Patient 1, 36 weeks, CBD 25.0 mg/kg/day, baseline 75.0",0.0
same,"Seizure frequency, focal with impairment","Patient 1, 36 weeks, CBD 25.0 mg/kg/day, baseline 100.0",0.0
same,"Seizure frequency, absence","Patient 1, 36 weeks, CBD 25.0 mg/kg/day, baseline 2500.0",466.6
same,"Seizure frequency, tonic-clonic","Patient 1, 48 weeks, CBD 25.0 mg/kg/day, baseline 0.0",16.0
same,"Seizure frequency, myoclonic","Patient 1, 48 weeks, CBD 25.0 mg/kg/day, baseline 75.0",0.0
same,"Seizure frequency, focal with impairment","Patient 1, 48 weeks, CBD 25.0 mg/kg/day, baseline 100.0",0.0
same,"Seizure frequency, absence","Patient 1, 48 weeks, CBD 25.0 mg/kg/day, baseline 2500.0",231.7
same,Reduction in absence seizures over the treatment period,[1],90.7%
same,Reduction in focal seizures with impairment over the treatment period,[1],100%
same,Reduction in myoclonic seizures over the treatment period,[1],100%
same,"Seizure frequency, tonic-clonic","Patient 2, 4 weeks, CBD 25.0 mg/kg/day, baseline 1.0",0.0
same,"Seizure frequency, absence",[2],6.0
same,"Seizure frequency, focal without impairment",[2],8.0
same,"Seizure frequency, tonic","Patient 2, 4 weeks, CBD 25.0 mg/kg/day, baseline 32.0",44.0
same,"Seizure frequency, tonic-clonic","Patient 2, 8 weeks, CBD 25.0 mg/kg/day, baseline 1.0",0.0
same,"Seizure frequency, absence",[3],0.0
same,"Seizure frequency, focal without impairment",[3],0.0
same,"Seizure frequency, tonic","Patient 2, 8 weeks, CBD 25.0 mg/kg/day, baseline 32.0",24.0
same,"Seizure frequency, tonic-clonic","Patient 2, 24 weeks, CBD 25.0 mg/kg/day, baseline 1.0",0.5
same,"Seizure frequency, absence",[4],12.0
same,"Seizure frequency, focal without impairment",[4],17.0
same,"Seizure frequency, tonic","Patient 2, 24 weeks, CBD 25.0 mg/kg/day, baseline 32.0",56.0
same,Reduction in tonic-clonic seizures over the treatment period,"Patient 2, treated for 24 weeks, vs baseline",50%
same,"Seizure frequency, tonic-clonic","Patient 3, 2 weeks, CBD 5.0 mg/kg/day, baseline 6.0",8.0
same,"Seizure frequency, myoclonic","Patient 3, 2 weeks, CBD 5.0 mg/kg/day, baseline 32.0",6.0
same,"Seizure frequency, tonic-clonic","Patient 3, 4 weeks, CBD 10.0 mg/kg/day, baseline 6.0",5.3
same,"Seizure frequency, myoclonic","Patient 3, 4 weeks, CBD 10.0 mg/kg/day, baseline 32.0",9.3
same,"Seizure frequency, tonic-clonic","Patient 3, 8 weeks, CBD 20.0 mg/kg/day, baseline 6.0",6.0
same,"Seizure frequency, myoclonic","Patient 3, 8 weeks, CBD 20.0 mg/kg/day, baseline 32.0",16.0
same,"Seizure frequency, tonic-clonic","Patient 3, 16 weeks, CBD 25.0 mg/kg/day, baseline 6.0",11.0
same,"Seizure frequency, myoclonic","Patient 3, 16 weeks, CBD 25.0 mg/kg/day, baseline 32.0",4.0
same,"Seizure frequency, tonic-clonic","Patient 3, 36 weeks, CBD 30.0 mg/kg/day, baseline 6.0",2.6
same,"Seizure frequency, myoclonic","Patient 3, 36 weeks, CBD 30.0 mg/kg/day, baseline 32.0",9.3
same,"Seizure frequency, tonic-clonic","Patient 3, 48 weeks, CBD 35.0 mg/kg/day, baseline 6.0",7.7
same,"Seizure frequency, myoclonic","Patient 3, 48 weeks, CBD 35.0 mg/kg/day, baseline 32.0",18.4
same,"Seizure frequency, tonic-clonic","Patient 3, 60 weeks, CBD 35.0 mg/kg/day, baseline 6.0",6.6
same,"Seizure frequency, myoclonic","Patient 3, 60 weeks, CBD 35.0 mg/kg/day, baseline 32.0",19.4
same,"Seizure frequency, tonic-clonic","Patient 3, 72 weeks, CBD 30.0 mg/kg/day, baseline 6.0",3.4
same,"Seizure frequency, myoclonic","Patient 3, 72 weeks, CBD 30.0 mg/kg/day, baseline 32.0",9.7
same,"Seizure frequency, tonic-clonic","Patient 3, 96 weeks, CBD 30.0 mg/kg/day, baseline 6.0",1.0
same,"Seizure frequency, myoclonic","Patient 3, 96 weeks, CBD 30.0 mg/kg/day, baseline 32.0",13.8
same,"Seizure frequency, tonic-clonic","Patient 3, 108 weeks, CBD 30.0 mg/kg/day, baseline 6.0",0.9
same,"Seizure frequency, myoclonic","Patient 3, 108 weeks, CBD 30.0 mg/kg/day, baseline 32.0",13.8
same,Reduction in myoclonic seizures over the treatment period,[5],56.9%
same,Reduction in tonic-clonic seizures over the treatment period,[5],85%
same,"Seizure frequency, tonic-clonic","Patient 4, 2 weeks, CBD 5.0 mg/kg/day, baseline 10.0",2.0
same,"Seizure frequency, focal with impairment","Patient 4, 2 weeks, CBD 5.0 mg/kg/day, baseline 14.0",4.0
same,"Seizure frequency, atonic","Patient 4, 2 weeks, CBD 5.0 mg/kg/day",0.0
same,"Seizure frequency, tonic-clonic","Patient 4, 4 weeks, CBD 10.0 mg/kg/day, baseline 10.0",2.0
same,"Seizure frequency, focal with impairment","Patient 4, 4 weeks, CBD 10.0 mg/kg/day, baseline 14.0",2.0
same,"Seizure frequency, atonic","Patient 4, 4 weeks, CBD 10.0 mg/kg/day",1.0
same,"Seizure frequency, tonic-clonic","Patient 4, 8 weeks, CBD 20.0 mg/kg/day, baseline 10.0",0.0
same,"Seizure frequency, focal with impairment","Patient 4, 8 weeks, CBD 20.0 mg/kg/day, baseline 14.0",0.0
same,"Seizure frequency, atonic","Patient 4, 8 weeks, CBD 20.0 mg/kg/day",0.0
same,"Seizure frequency, tonic-clonic","Patient 4, 12 weeks, CBD 20.0 mg/kg/day, baseline 10.0",0.0
same,"Seizure frequency, focal with impairment","Patient 4, 12 weeks, CBD 20.0 mg/kg/day, baseline 14.0",0.0
same,"Seizure frequency, atonic","Patient 4, 12 weeks, CBD 20.0 mg/kg/day",5.0
